A short description of the series: Log P by HPLC on reversed phase columns (EEC directive 79/831 Annex V.A8). Format: physicochemical. The method, boiled down: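 Reversed-phase HPLC per EEC 79/831 Annex V.A8, LC-UV with 10→95% acetonitrile linear gradient; eluent [a] 0.1% formic acid (acidic), [b] 0.001 M ammonium acetate (neutral), [c] 0.1% phosphoric acid (acidic). Calibrated with C3–C16 straight-chain alkan-2-ones, linear interpolation of retention times; multiple values joined by "+".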

Setting [1] is: LogP method [a], compounds of formula (I), Table 1.1.

In the case of `O=C(NC1(C(=O)OC2CCC2)CC1)c1sc(Br)c(C(F)F)c1Br` [1.0508], the LogP under setting [1] is 3.57^[a].
Same read-out and setting: as for `N#CCNC(=O)c1sc(Br)c(C(F)F)c1Br` [1.0509], the figure is 2.37^[a]; as for `CCOC(=O)CNC(=O)c1sc(C(F)F)c(Br)c1Br` [1.0510], 3.02^[a].
Regarding `COC(=O)CNC(=O)c1sc(C(F)F)c(Br)c1Br` [1.0511], under setting [1], the LogP is 2.64^[a].
Turning to `COC(=O)C1(NC(=O)c2sc(C(F)F)c(Br)c2Br)CC1` [1.0512], under setting [1], the LogP is 2.79^[a].
Still for that read-out and setting: under `COC(=O)C(C)(C)NC(=O)c1sc(C(F)F)c(Br)c1Br` [1.0513] stands 3.32^[a]; under `CCOC(=O)C(NC(=O)c1sc(C(F)F)c(Br)c1Br)C(C)C` (stereo not drawn) [1.0514], 4.30^[a].
On the same count and under the same terms, under `COC(=O)C(NC(=O)c1sc(C(F)F)c(Br)c1Br)C1CC1` (stereo not drawn) [1.0515] stands 3.46^[a]; under `CCOC(=O)C(Cc1ccccc1)NC(=O)c1sc(C(F)F)c(Br)c1Br` (stereo not drawn) [1.0516], 4.48^[a].
The same measure, in the same setting: as for `COC(=O)C1(NC(=O)c2sc(C(F)F)c(Br)c2Br)CCC1` [1.0517], the figure is 3.35^[a].
On to `CCOC(=O)C1(NC(=O)c2sc(C(F)F)c(Br)c2Br)CCC1` [1.0518], for which the LogP under setting [1] was 3.75^[a].
On the same count and under the same terms, as for `CCCOC(=O)C1(NC(=O)c2sc(C(F)F)c(Br)c2Br)CC1` [1.0519], the figure is 3.51^[a]; as for `O=C(NC1(C(=O)OC2CCC2)CC1)c1sc(C(F)F)c(Br)c1Br` [1.0520], 3.67^[a].
On the same count and under the same terms, under `N#CCNC(=O)c1sc(C(F)F)c(Br)c1Br` [1.0521] stands 2.45^[a]; under `CCOC(=O)C1(NC(=O)c2sc(C(F)F)c(Br)c2Br)CC1` [1.0522], 3.14^[a].
For the molecule `CC(C)(NC(=O)c1sc(Br)c(Br)c1F)C(=O)O` [1.0523], the LogP under setting [1] was 2.54^[a].
Same read-out and setting: as for `CCOC(=O)C(NC(=O)c1sc(Cl)c(Cl)c1Br)C1CC1` (stereo not drawn) [1.0524], the figure is 4.35^[a]; as for `COC(=O)C1(NC(=S)c2sc(Br)c(Cl)c2C)CC1` [1.0526], 3.67^[a]; as for `COC(=O)CNC(=O)c1sc(Br)c(Br)c1F` [1.0527], 2.52^[a].
Same read-out and setting: as for `COC(=O)C(CC(=O)OC(C)(C)C)NC(=O)c1sc(Br)c(Br)c1Cl` (stereo not drawn) [1.0528], the figure is 4.55^[a].
The same measure, in the same setting: under `COC(=O)[C@H](CSC(=O)N(C)C)NC(=O)c1sc(Cl)c(Cl)c1Br` [1.0529] stands 3.58^[a].
For the molecule `CCNC(=O)SC[C@H](NC(=O)c1sc(Cl)c(Cl)c1Br)C(=O)OC` [1.0530], the LogP (method [a]) is 3.39^[a].
Still for that read-out and setting: as for `CNC(=S)SC[C@H](NC(=O)c1sc(Cl)c(Cl)c1Br)C(=O)OC` [1.0531], the figure is 3.56^[a].
On the same count and under the same terms, as for `CCOC(=O)CC[C@H](NC(=O)c1sc(Br)c(Br)c1Cl)C(=O)OCC` [1.0532], the figure is 4.23^[a].
The same measure, in the same setting: under `COC(=O)[C@H](CSC(=O)N(C)C)NC(=O)c1sc(Br)c(Br)c1F` [1.0533] stands 3.27^[a].
`CNC(=S)SC[C@H](NC(=O)c1sc(Br)c(Br)c1F)C(=O)OC` [1.0534]: the LogP (method [a]) was 3.24^[a].
Still for that read-out and setting: as for `COC(=O)C(CSC(=O)N(C)C)NC(=O)c1sc(Br)c(Br)c1Cl` (stereo not drawn) [1.0535], the figure is 3.59^[a]; as for `CCNC(=O)SCC(NC(=O)c1sc(Br)c(Br)c1Cl)C(=O)OC` (stereo not drawn) [1.0536], 3.38^[a]; as for `CNC(=S)SC[C@H](NC(=O)c1sc(Br)c(Br)c1Cl)C(=O)OC` [1.0537], 3.54^[a].
Regarding `COC(=O)CNC(=S)c1sc(Br)c(Br)c1F` [1.0538], the LogP (method [a]) is 3.74^[a].
Same read-out and setting: under `COC(=O)C1(NC(=O)c2sc(Br)c(Br)c2F)CC1` [1.0539] stands 2.09^[a]; under `COC(=O)C(C)(C)NC(=O)c1sc(Br)c(Br)c1F` [1.0540], 3.34^[a].
Take `COC(=O)C1(NC(=O)c2sc(Br)c(Br)c2F)COC1` [1.0541]: the LogP (method [a]) is 2.49^[a].
On to `CCOC(=O)CN(O)C(=O)c1sc(Br)c(Br)c1F` [1.0542], for which the LogP (method [a]) was 2.54^[a].
As to `CCNC(=O)SC[C@H](NC(=O)c1sc(Br)c(Br)c1F)C(=O)OC` [1.0543], where the note is “method [a]”, the LogP was 3.10^[a].
Still for that read-out and setting: as for `COC(=O)C(C1CC1)N(O)C(=O)c1sc(Cl)c(Cl)c1Br` (stereo not drawn) [1.0544], the figure is 3.05^[a]; as for `CCOC(=O)C[C@H](NC(=O)c1sc(Br)c(Br)c1Cl)C(=O)OCC` [1.0545], 4.15^[a]; as for `COC(=O)C[C@H](NC(=O)c1sc(Br)c(Br)c1Cl)C(=O)OC` [1.0546], 3.33^[a].
Regarding `CCOC(=O)C(CSC(C)=O)NC(=O)c1sc(Cl)c(Cl)c1Br` (stereo not drawn) [1.0547], the LogP (method [a]) is 3.46^[a].
Take `COC(=O)C[C@H](NC(=O)c1sc(Cl)c(Cl)c1Br)C(=O)OC` [1.0548]: the LogP (method [a]) is 3.33^[a].
Same read-out and setting: under `COC(=O)CC[C@H](NC(=O)c1sc(Cl)c(Cl)c1Br)C(=O)OC` [1.0549] stands 3.41^[a]; under `CCOC(=O)C(CSC)NC(=O)c1sc(Br)c(Br)c1Cl` (stereo not drawn) [1.0550], 4.32^[a].
Same read-out and setting: under `CCOC(=O)C[C@H](NC(=O)c1sc(Cl)c(Cl)c1Br)C(=O)OCC` [1.0551] stands 4.17^[a]; under `COC(=O)[C@H](CC(=O)OC(C)(C)C)NC(=O)c1sc(Cl)c(Cl)c1Br` [1.0552], 4.59^[a]; under `COC(=O)C(CCSC(C)=O)NC(=O)c1sc(Br)c(Br)c1F` (stereo not drawn) [1.0553], 3.13^[a].
`CCOC(=O)C(CSC(C)=O)NC(=O)c1sc(Br)c(Br)c1F` (stereo not drawn) [1.0554]: the LogP (method [a]) is 3.18^[a].
Same read-out and setting: under `COC(=O)C[C@H](NC(=O)c1sc(Br)c(Br)c1F)C(=O)OC` [1.0555] stands 2.99^[a].
The same measure, in the same setting: under `CCOC(=O)C(CSC)NC(=O)c1sc(Br)c(Br)c1F` (stereo not drawn) [1.0556] stands 3.87^[a]; under `COC(=O)CC[C@H](NC(=O)c1sc(Br)c(Br)c1F)C(=O)OC` [1.0557], 3.07^[a].
`CCOC(=O)C[C@H](NC(=O)c1sc(Br)c(Br)c1F)C(=O)OCC` [1.0558]: the LogP (method [a]) is 3.76^[a].
Same read-out and setting: under `CCOC(=O)CC[C@H](NC(=O)c1sc(Br)c(Br)c1F)C(=O)OCC` [1.0559] stands 3.84^[a].
As to `COC(=O)[C@H](CC(=O)OC(C)(C)C)NC(=O)c1sc(Br)c(Br)c1F` [1.0560], the LogP (method [a]) is 4.12^[a].
The same measure, in the same setting: as for `CCOC(=O)C(CSC(C)=O)NC(=O)c1sc(Br)c(Br)c1Cl` (stereo not drawn) [1.0561], the figure is 3.44^[a].
For the molecule `CCOC(=O)CC[C@H](NC(=O)c1sc(Cl)c(Cl)c1Br)C(=O)OCC` [1.0562], the LogP (method [a]) was 4.25^[a].
On the same count and under the same terms, under `N#CNC(=O)CNC(=O)c1sc(Br)c(Br)c1F` [1.0563] stands 2.17^[a].
Same read-out and setting: under `COC(=O)CNC(=O)c1sc(C)c(Cl)c1Cl` [1.0564] stands 2.45^[a].
As to `COC(=O)C1(NC(=O)c2sc(C#N)c(Br)c2Cl)CCC1` [1.0565], the LogP (method [a]) was 2.98^[a].
Same read-out and setting: under `CCOC(=O)C1(NC(=O)c2sc(C#N)c(Br)c2Cl)CCC1` [1.0566] stands 3.38^[a]; under `CCCOC(=O)C1(NC(=O)c2sc(C#N)c(Br)c2Cl)CC1` [1.0567], 3.18^[a].
Still for that read-out and setting: under `N#Cc1sc(C(=O)NC2(C(=O)OC3CCC3)CC2)c(Cl)c1Br` [1.0568] stands 3.32^[a].
The same measure, in the same setting: as for `N#CCNC(=O)c1sc(C#N)c(Br)c1Cl` [1.0569], the figure is 2.08^[a].
Turning to `CCOC(=O)CNC(=O)c1sc(C#N)c(Cl)c1Cl` [1.0570], the LogP (method [a]) is 2.60^[a].
The same measure, in the same setting: under `COC(=O)CNC(=O)c1sc(C#N)c(Cl)c1Cl` [1.0571] stands 2.20^[a].
The same measure, in the same setting: under `CCOC(=O)C1(NC(=O)c2sc(C#N)c(Cl)c2Cl)CC1` [1.0572] stands 2.76^[a]; under `COC(=O)C1(NC(=O)c2sc(C#N)c(Cl)c2Cl)CC1` [1.0573], 2.40^[a]; under `COC(=O)C(C)(C)NC(=O)c1sc(C#N)c(Cl)c1Cl` [1.0574], 2.90^[a].
Same read-out and setting: as for `CCOC(=O)C(NC(=O)c1sc(C#N)c(Cl)c1Cl)C(C)C` (stereo not drawn) [1.0575], the figure is 3.89^[a]; as for `COC(=O)C(NC(=O)c1sc(C#N)c(Cl)c1Cl)C1CC1` (stereo not drawn) [1.0576], 3.05^[a].
As to `CCOC(=O)C(Cc1ccccc1)NC(=O)c1sc(C#N)c(Cl)c1Cl` (stereo not drawn) [1.0577], the LogP (method [a]) was 4.11^[a].
Same read-out and setting: as for `COC(=O)C1(NC(=O)c2sc(C#N)c(Cl)c2Cl)CCC1` [1.0578], the figure is 2.94^[a]; as for `CCOC(=O)C1(NC(=O)c2sc(C#N)c(Cl)c2Cl)CCC1` [1.0579], 3.35^[a].
Same read-out and setting: under `CCCOC(=O)C1(NC(=O)c2sc(C#N)c(Cl)c2Cl)CC1` [1.0580] stands 3.15^[a]; under `N#Cc1sc(C(=O)NC2(C(=O)OC3CCC3)CC2)c(Cl)c1Cl` [1.0581], 3.30^[a]; under `N#CCNC(=O)c1sc(C#N)c(Cl)c1Cl` [1.0582], 2.04^[a].
For the molecule `CCOC(=O)CNC(=O)c1sc(Cl)c(Br)c1C#N` [1.0583], the LogP (method [a]) is 2.56^[a].
In the case of `COC(=O)CNC(=O)c1sc(Cl)c(Br)c1C#N` [1.0584], under “method [a]”, the LogP was 2.20^[a].
As for `CCOC(=O)C1(NC(=O)c2sc(Cl)c(Br)c2C#N)CC1` [1.0585], under “method [a]”, the LogP is 2.70^[a].
Same read-out and setting: under `CCOC(=O)C(Cc1ccccc1)NC(=O)c1sc(C#N)c(Br)c1Cl` (stereo not drawn) [1.0586] stands 4.13^[a]; under `COC(=O)C(NC(=O)c1sc(C#N)c(Br)c1Cl)C1CC1` (stereo not drawn) [1.0587], 3.08^[a].
The same measure, in the same setting: as for `CCOC(=O)C(NC(=O)c1sc(C#N)c(Br)c1Cl)C(C)C` (stereo not drawn) [1.0588], the figure is 3.92^[a].
On the same count and under the same terms, as for `COC(=O)C(C)(C)NC(=O)c1sc(C#N)c(Br)c1Cl` [1.0589], the figure is 2.93^[a].
Consider `Cc1c(C(=O)NC2(C(=O)OC3CCC3)CC2)sc(Cl)c1Br` [1.0590], for which the LogP (method [a]) is 3.81^[a].
In the case of `CCCOC(=O)C1(NC(=O)c2sc(Br)c(Cl)c2F)CC1` [1.0591], the LogP (method [a]) is 3.56^[a].
The same measure, in the same setting: under `O=C(NC1(C(=O)OC2CCC2)CC1)c1sc(Br)c(Cl)c1F` [1.0592] stands 3.72^[a].
